Laboratory results published in PMC10038264, “A new family of glutamate-gated chloride channels in parasitic sea louse Caligus rogercresseyi: A subunit refractory to activation by ivermectin is dominant in heteromeric assemblies” (PLOS Pathogens, 2023).
Like-named read-outs stand apart in the source and are kept apart here.

Columns and labels:
CrGluCl-A [1] = target: T1, CrGluCl-A (Caligus rogercresseyi, UniProt A0A1W6LZ70); details: cited from earlier work
CrGluCl-B = experiment: Two-electrode voltage-clamp of Xenopus oocytes expressing CrGluCl-B; type: cell-based, Caligus rogercresseyi; details: CrGluCl-B
Protocol: (§1) Adult female Xenopus laevis frogs were anaesthetized by immersion in a1g/L solution tricaine (Ethyl 3-aminobenzoate methanesulfonate, Sigma) buffered to pH 7 with NaHCO3. Surgery was performed 30–40 min later, once the frog was completely anaesthetized judging by loss of reflexes. Ovarian lobes were removed through 1 cm abdominal incision and then kept at 16°C in Barth’s modified solution containing (in mM): 88 NaCl, 1 KCl, 0.4 CaCl2, 0.3 Ca (NO3)2, 0.8 MgSO4, 2.4 NaHCO3, 5 Hepes, 2.5 sodium pyruvate, 100 μg/ml gentamicin sulfate, 100 U/ml penicillin, 100 μg/ml streptomycin, 250 μg/ml amphotericin B, 0.22μm filtered and adjusted to pH 7.5 with Tris-Base. Osmolarity was brought to 220 mOsm with saccharose. The oocytes were manually defolliculated on the same day of extraction and the following day 20 ng cRNA in nuclease-free water was injected into stage V-VI oocytes using a FemtoJet microinjector (Eppendorf). Finally, the injected oocytes were stored in 96 well plates containing Barth’s modified solution and kept at 16°C until experiment day.
(§2) Current measurements at controlled membrane potentials (voltage-clamp experiments) were performed using two intracellular microelectrodes in defolliculated Xenopus oocytes previously microinjected with 20 ng of cRNA. Voltage-clamp recording was performed at room temperature using a TURBO TEC-10CX amplifier (npi electronic GmbH, Tamm, Germany) and PClamp 10.6 software (Axon Instruments, USA), 1 to 4 days after oocyte injection. The oocytes were recorded in a chamber (Model RC-1Z, Warner Instrumenst, USA) under continuous superfusion. […] Reference was an Ag-AgCl electrode connected to the bath via a 3 M KCl in 3% agar bridge. Currents were recorded continuously during the experiments without interruptions for solution changes. Oocytes were held at -30 mV and a voltage protocol consisting of a voltage drop to -100 mV for 25ms followed by a 360 ms ramp from -100 mV to 60mV applied with a period of 565 ms was continuously given. The signal filtered at 1 kHz was acquired with a Digidata 1440A Analog-to-Digital Converter and analyzed with Axon pClamp 10.6 software. The solution that bathed the oocytes during the electrophysiological recordings had the following composition (mM): 115 NaCl, 2 KCl, 1.8 CaCl2, 1 MgCl2, 10 HEPES pH 7.5 obtained with NaOH. For the low chloride solution, all the NaCl was replaced with the gluconate salt of Na. This decreases chloride concentration from 122.6 to 7.6 mM while increasing that of gluconate from 0 to 115 mM. The stock solutions of the drugs in dimethyl sulfoxide (DMSO) were: 10 mM emamectin, 10 mM ivermectin, 100 mM picrotoxin. These were diluted in bath solution to obtain final concentrations.
(§3) The currents were normalized according to the extrapolated maximum current delivered by the Hill adjustment. In this way, the concentration that generates 50% of the maximum effect (EC50) and the Hill coefficient (nH) for each situation were obtained.

CrGluCl-C = type: cell-based, Caligus rogercresseyi
Protocol: as §1, §2, §3

CrGluCl-D = type: cell-based, Caligus rogercresseyi; details: CrGluCl-D, read-out: IC50 PTX inhibition of spontaneous current
Protocol: as §1, §2, §3

CrGluCl-A [2] = target: T1, CrGluCl-A; experiment: Two-electrode voltage-clamp of Xenopus oocytes expressing CrGluCl-A; type: cell-based; details: 100 μM PTX, CrGluCl-A
Protocol: as §1
Current measurements at controlled membrane potentials (voltage-clamp experiments) were performed using two intracellular microelectrodes in defolliculated Xenopus oocytes previously microinjected with 20 ng of cRNA. Voltage-clamp recording was performed at room temperature using a TURBO TEC-10CX amplifier (npi electronic GmbH, Tamm, Germany) and PClamp 10.6 software (Axon Instruments, USA), 1 to 4 days after oocyte injection. The oocytes were recorded in a chamber (Model RC-1Z, Warner Instrumenst, USA) under continuous superfusion. […] Reference was an Ag-AgCl electrode connected to the bath via a 3 M KCl in 3% agar bridge. Currents were recorded continuously during the experiments without interruptions for solution changes. […] The signal filtered at 1 kHz was acquired with a Digidata 1440A Analog-to-Digital Converter and analyzed with Axon pClamp 10.6 software. […]

T1 sequence (A0A1W6LZ70 entry or part of it): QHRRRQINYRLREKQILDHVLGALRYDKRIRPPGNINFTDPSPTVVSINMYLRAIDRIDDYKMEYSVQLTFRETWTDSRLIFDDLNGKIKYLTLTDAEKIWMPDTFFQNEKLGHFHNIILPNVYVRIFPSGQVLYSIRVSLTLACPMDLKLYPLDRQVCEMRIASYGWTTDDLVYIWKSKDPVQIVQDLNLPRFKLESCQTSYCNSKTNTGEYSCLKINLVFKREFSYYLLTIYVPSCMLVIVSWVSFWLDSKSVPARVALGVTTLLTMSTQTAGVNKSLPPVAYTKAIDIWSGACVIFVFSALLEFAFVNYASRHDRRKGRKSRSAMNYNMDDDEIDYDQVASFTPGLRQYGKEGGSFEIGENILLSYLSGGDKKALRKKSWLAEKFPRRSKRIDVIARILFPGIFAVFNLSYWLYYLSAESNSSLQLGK

| Substance | EC50 (CrGluCl-A [1]; read-out: EC50 Ivermectin / avermectin irreversible activation) [µM] | antagonism of glutamate response (CrGluCl-B; S3 Fig) | inhibition by PTX (CrGluCl-C; 100 μM PTX, CrGluCl-C) [%] | nH (PTX inhibition) (CrGluCl-C; CrGluCl-C current elicited by 1 μM ivermectin) | IC50 (CrGluCl-C; CrGluCl-C current elicited by 1 μM ivermectin, read-out: IC50 PTX inhibition of ivermectin-induced current) [µM] | IC50 (CrGluCl-D; after 1 μM ivermectin (~2 min)) [µM] | IC50 (CrGluCl-D; before ivermectin treatment) [µM] | IC50 (CrGluCl-A [1]) [µM] | inhibition by PTX (CrGluCl-A [2]) [%] | inhibition by PTX of glutamate-elicited current (CrGluCl-B; 100 μM PTX, 1 mM glutamate) [%] |
| --- | --- | --- | --- | --- | --- | --- | --- | --- | --- | --- |
| emamectin | ~0.2 | antagonistic effect |  |  |  |  |  |  |  |  |
| picrotoxin [PTX] |  |  | 23 ± 10 | -1.2±0.22 | 275 ± 96 | 221 ± 100 | 16 ± 8.8 | 3.2 | 78 ± 2 | 76 ± 9 |
